Measured values from PMC9785441, “A Broad Spectrum Antiparasitic Activity of Organotin (IV) Derivatives and Its Untargeted Proteomic Profiling Using Leishmania donovani” (Pathogens, 2022).
Entries after “also recorded” stand apart in the source; their conditions may differ. Each block holds one compound with its values, some of them ahead of it.

Assays:
[1] = tested on: E. histolytica HM1:IMSS trophozoites; test: E. histolytica trophozoite viability assay (CellTiter-Glo); type: cell-based, Entamoeba histolytica; details: 48 h
Protocol: Trophozoites of E. histolytica HM1:IMSS were maintained in vitro as described in TYI-S-33 medium supplemented with penicillin (100 U/mL) and streptomycin (100 µg/mL). Test compounds were serially diluted and transferred to a white solid bottomed 96-well tissue culture plate (E&K Scientific, Swedesboro, NJ, USA) followed by addition of 5000 E. histolytica trophozoites per well for a final volume of 100 µL TYI-S-33 medium and a final concentration of compounds ranging from 50 to 0.39 µM. Metronidazole were used as positive control and assay plates were incubated for 48 h at 37 °C. The plates maintained kept anaerobically using the GasPak EZ Anaerobic Gas Generating Pouch System (VWR). Parasite viability was measured in triplicate using the CellTiter-Glo luminescence kit (Promega G9243) in an Envision plate reader (Perkin Elmer, Waltham, MA, USA). EC50 values were obtained using GraphPad Prism 9 Software.

[2] = Cytotoxicity to B10R host cells (nuclei count in the amastigote assay); type: cell-based; details: mouse, B10R monocyte cells co-cultured with L. donovani parasites
Protocol: For the intracellular amastigote stage assay, L. donovani was incubated at a density of 1 × 10^6 parasites/mL for six days at 29 °C before infection to enrich the proportion of metacyclic promastigotes. B10R monocyte cell lines were cultured in RPMI supplemented with 10% FBS and 1%penicillin/streptomycin at 37 °C in 5% CO2. After 72 h, cells were counted with a hemocytometer and mixed with the six-day-old parasites. […] Plates were incubated at 37 °C and 5% CO2 for 72 h. Cultures were then fixed with 4% formaldehyde solution for 30 min and stained with 0.5 µg/mL DAPI (diamidino-2-phenylindole). Plates were then imaged using an ImageXpress Micro XLS automated high content imager (Molecular Devices, San Jose, CA, USA) using a 10× air objective. A custom image analysis module generated in ImageXpress was used to count the nuclei of host and parasite cells. EC50 values were obtained using the GraphPad Prism 9 Software with biological triplicates.

[3] = HEK293 cytotoxicity assay (resazurin); type: cell-based; details: HEK-293T cells, human embryonic kidney cells, max 4 µM, read-out: CC50 HEK923
Protocol: HEK-293T cells were cultured in DMEM (Gibco) supplemented with 10% heat inactivated FBS (Corning) and 1% penicillin-streptomycin (Gibco). Cells were maintained in vented T75 cell culture flasks (Thermo Scientific, Cat. 12-565-349) at 37 °C and 5% CO2, and were passaged every 72 h. […] Compounds were diluted with fresh DMEM (49 µL/well). HEK-293 cells were suspended at 4 × 10^5 cells/mL in DMEM and added to each well (50 µL/well) to give 2 × 10^4 cells/well. Assay plates were incubated at 37 °C and 5% CO2 for 48 h, followed by addition of 20 µL of 0.5 mM resazurin (Alfa Aesar, Cat. B21187) in PBS to each well. […] In each assay plate, cell viability was normalized relative to positive and negative controls. Assays were performed in biological and technical duplicates, and dose–response and CC50 data were generated with GraphPad Prism 5 using a sigmoidal four parameter logistic curve.

[4] = tested on: L. donovani-infected B10R cells; test: Untargeted proteomics of L. donovani-infected B10R cells treated and untreated with MS26Et3; type: cell-based, mouse / Leishmania donovani; details: L. donovani-infected B10R cells exposed to compound vs not exposed
Protocol: B10R culture cells (infected or uninfected with Leishmanaia donovani) were collected and washed twice in cold PBS. The cell pellets (~10^6 cells/pellet) were snap-frozen and stored at −80 °C. To extract the proteins, pellets were thawed, and the cells were resuspended in 200 µL buffer containing 6 M urea, 7% SDS, 50 mM TEAB, protease inhibitor cocktail (Roche, cat. no. A32963), phosphatase inhibitor (Roche, cat. no. A32957), with pH adjusted to 8.1 with phosphoric acid. The cells were then lysed using a sonicating probe 200 µL. The samples were reduced in 500 mM DTT at 47 °C for 30 min and alkylated in 500 mM IAA in the absence of light, at room temperature for 45 min, followed by quenching in 500 mM DTT for 5 min. The samples were then acidified with 12% phosphoric acid and mixed in a 7:1 ratio with binding buffer containing 90% methanol, 50 mM TEAB, pH 7.1, adjusted with phosphoric acid and loaded on to S-Trap columns (Protifi). […] The concentration of desalted peptides was determined and 50 µg aliquots of each sample were dried in a speed vacuum concentrator. […]
Basic pH reverse-phase LC and data acquisition through LC–MS2/MS3 were performed as previously described. […] Fractions were then analyzed using tandem mass spectrometry (MS2/MS3) on an Orbitrap Fusion mass spectrometer (ThermoFisher, Waltham, MA, USA) with an in-line EASY-nLC 1000 instrument (ThermoFisher, Waltham, MA, USA). […]

Structure (SMILES): CCC[CH2][Sn]([CH2]CCC)([CH2]CCC)[O]C(=O)CCC(=O)Nc1ccc(OC)cc1 [MS26Bu3]
- EC50 [1]: 8.7 µM

- EC50 ([1]; Entamoeba histolytica): > 10 µM
Structure (SMILES): COc1ccc(NC(=O)CCC(=O)O)cc1 [MS26, 4-(4-methoxyphenylamino)-4 oxobutanoic acid]
- CC50 at 72 h [2]: 2.38 µM
- CC50 at 48 h [3]: > 4 µM

Structure (SMILES): C[CH2][Sn]([CH2]C)([CH2]C)[O]C(=O)CCC(=O)Nc1ccc(OC)cc1 [MS26Et3]
- EC50 [1]: 5.6 µM
- Rab7 expression / abundance [4]: reduced expression; also recorded: differentially expressed; also recorded: decreased in abundance
